Results published in patent US20250161294A1, “COMPOSITIONS AND METHODS FOR TREATMENT OF OCULAR DISORDERS” (Bausch + Lomb Ireland Limited, priority 2023, published 2025).
Each block holds one compound with its values, some of them ahead of it.

Assays:
[1] = tested on: viable bacteria; yeasts and molds; assay: Antimicrobial effectiveness acceptance criteria, Ph. Eur. 5.1.3 (overall); type: cell-based; details: bacteria: >=2 log reduction at 6 hours, >=3 log at 24 hours, no recovery at 28 days; yeasts and molds: >=2 log at 7 days, no increase at 28 days; no extrinsic preservative
Procedure: (§1) The antimicrobial properties of F6H8 were evaluated according to the Ph. Eur. 5.1.3 method.

[2] = tested on: S. aureus; assay: Antimicrobial properties of F6H8, Ph. Eur. 5.1.3 method; type: cell-based; details: for Count: inoculum 2 × 10^5
[3] = tested on: E. coli; assay: as above; type: cell-based; details: for Count: inoculum 2 × 10^5
Procedure: as §1

[4] = tested on: P. aeruginosa; assay: as above; type: cell-based; details: for Count: inoculum 8 × 10^5
Procedure: as §1

[5] = tested on: A. brasiliensis; assay: as above; type: cell-based; details: for Count: inoculum 7 × 10^5
Procedure: as §1

[6] = tested on: C. albicans; assay: as above; type: cell-based; details: for Count: inoculum 9 × 10^5
Procedure: as §1

[7] = Solubility of lifitegrast free acid in F6H8; type: physicochemical; details: lifitegrast free acid added to F6H8 at 0.25% to 10% (w/w); forms a suspension
Text: The lifitegrast is in soluble in F6H8 and forms a suspension. When left standing the lifitegrast settles to form a sediment.

Compound: CCCCCCCCC(F)(F)C(F)(F)C(F)(F)C(F)(F)C(F)(F)C(F)(F)F [F6H8, 1-perfluorohexyloctane]
Acceptance criteria of the antimicrobial effectiveness assay [1]: meets the acceptance criteria
Log reduction ([2]; 0 hour): 4.1
Log reduction ([2]; 6 hours): 5.3
Count ([2]; 6 hours): 0
Log reduction ([2]; 24 hours): 5.3
Count ([2]; 24 hours): 0
Log reduction ([2]; 28 days): 5.3
Count ([2]; 28 days): 0
Log reduction ([3]; 0 hour): 1.0
Count ([3]; 0 hour): 2 × 10^4
Log reduction ([3]; 6 hours): 5.3
Count ([3]; 6 hours): 0
Log reduction ([3]; 24 hours): 5.3
Count ([3]; 24 hours): 0
Log reduction ([3]; 28 days): 5.3
Count ([3]; 28 days): 0
Log reduction ([4]; 0 hour): 1.2
Count ([4]; 0 hour): 5 × 10^4
Log reduction ([4]; 6 hours): 3.3
Count ([4]; 6 hours): 4 × 10^2
Log reduction ([4]; 24 hours): 5.0
Count ([4]; 24 hours): 8
Log reduction ([4]; 28 days): 5.9
Count ([4]; 28 days): 0
Log reduction ([5]; 0 hour): 0.9
Count ([5]; 0 hour): 8 × 10^4
Log reduction ([5]; 7 days): 2.8
Count ([5]; 7 days): 1 × 10^3
Log reduction ([5]; 28 days): 2.5
Count ([5]; 28 days): 2 × 10^3
Log reduction ([6]; 0 hour): 2.3
Count ([6]; 0 hour): 5 × 10^3
Log reduction ([6]; 7 days): 6.0
Count ([6]; 7 days): 0
Log reduction ([6]; 28 days): 6.0
Count ([6]; 28 days): 0

Solubility in F6H8 [7]: in soluble
Compound: CS(=O)(=O)c1cccc(C[C@H](NC(=O)c2c(Cl)cc3c(c2Cl)CCN(C(=O)c2ccc4ccoc4c2)C3)C(=O)O)c1 [lifitegrast]
